Experimental data published in patent US20050282242A1, “Screening assays for antimicrobial agents” (priority 2004, published 2005).
Converted amounts (≈) assume the structure as drawn. Like-named read-outs stand apart in the source and are kept apart here.

Tests used:
Assay type in all cases: cell-based
[1] = test system: Wild-type parent strains (S. aureus 29213, Smith, W59536, 8325-4); experiment: MIC, wild-type parent S. aureus strains
Description: (§1) S. aureus is one of the most frequently encountered Gram-positive pathogens. Drug resistance-conferring mutations typically occur within the β subunit of RNA polymerase (RpoB mutations), in the rifampin-binding site. Mutants of S. aureus were isolated by inoculating a culture of S. aureus ATCC strain 29213 (standard susceptibility testing strain) into medium containing rifampin or rifalazil; by inoculating S. aureus ATCC strain 29213 into medium containing chemical derivatives of rifamycin (NCEs); by inoculating S. aureus Smith, a variant optimally adapted to colonizing and causing disease in the mouse septicemia model, into medium containing rifampin; and by using the Ian Chopra collection, the parent strain of which is S. aureus 8325-4 and described previously by Oliva et al. (Antimicrob. Agents Chemother. 45:532-9, 2001). Mutants resistant to rifampin, rifalazil, or NCEs were selected either on drug-containing plates or in liquid culture.
Having identified these mutants, the minimum inhibitory concentrations (MIC) of a number of rifamycin derivatives were determined in microtiter trays by inoculating 1-8×10^4 microorganisms in 100 μl of Mueller-Hinton Broth (cation adjusted) containing the indicated compound (Table 3) (National Committee for Clinical Laboratory Standards, Methods for Dilution Antimicrobial Susceptibility Tests for Bacteria That Grow Aerobically-Fourth Edition: Approved Standard M7-A4. NCCLS, Villanova, Pa., 1997). These cultures were incubated for 16-20 hours at 35° C. Based on our results, the most important mutants (conferring the strongest resistance) were identified for more extensive testing of NCEs. These mutants were H481Y, Q468K, S486L, D471Y, S464P, A477D, and H481D. […] An exception to the uniformity of the measure of resistance is provided by the mutants D471Y and S464P, which together have lower MICs for some of the compounds compared to the rest. […]

[2] = test system: S. aureus RpoB mutant H481Y; experiment: MIC, S. aureus RpoB H481Y mutant; conditions: Staphylococcus aureus; RpoB mutation H481Y; strain backgrounds 1, 2, 3
Description: as §1, with “Mutants resistant to rifampin, rifalazil, or NCEs were selected either on drug-containing plates or in liquid culture.” left out
(§2) Having identified these mutants, the minimum inhibitory concentrations (MIC) of a number of rifamycin derivatives were determined in microtiter trays by inoculating 1-8×10^4 microorganisms in 100 μl of Mueller-Hinton Broth (cation adjusted) containing the indicated compound (Table 3) (National Committee for Clinical Laboratory Standards, Methods for Dilution Antimicrobial Susceptibility Tests for Bacteria That Grow Aerobically-Fourth Edition: Approved Standard M7-A4. NCCLS, Villanova, Pa., 1997). […]

[3] = test system: S. aureus RpoB mutant R484H; experiment: MIC, S. aureus RpoB R484H mutant; conditions: Staphylococcus aureus; RpoB mutation R484H; strain backgrounds 1, 3
Description: as §1, with “Mutants resistant to rifampin, rifalazil, or NCEs were selected either on drug-containing plates or in liquid culture.” left out
as §2

[4] = test system: S. aureus RpoB mutant I527M; experiment: MIC, S. aureus RpoB I527M mutant; conditions: Staphylococcus aureus; RpoB mutation I527M; strain background 1
Description: as §1, with “Mutants resistant to rifampin, rifalazil, or NCEs were selected either on drug-containing plates or in liquid culture.” left out
as §2

[5] = test system: S. aureus RpoB mutant D471E; experiment: MIC, S. aureus RpoB D471E mutant; conditions: Staphylococcus aureus; RpoB mutation D471E; strain background 4
Description: as §1, with “Mutants resistant to rifampin, rifalazil, or NCEs were selected either on drug-containing plates or in liquid culture.” left out
as §2

[6] = test system: S. aureus RpoB mutant H481D; experiment: MIC, S. aureus RpoB H481D mutant; conditions: Staphylococcus aureus; RpoB mutation H481D; strain backgrounds 1, 4
Description: as §1, with “Mutants resistant to rifampin, rifalazil, or NCEs were selected either on drug-containing plates or in liquid culture.” left out
as §2

[7] = test system: S. aureus RpoB mutant H481N; experiment: MIC, S. aureus RpoB H481N mutant; conditions: Staphylococcus aureus; RpoB mutation H481N; strain backgrounds 1, 4
Description: as §1, with “Mutants resistant to rifampin, rifalazil, or NCEs were selected either on drug-containing plates or in liquid culture.” left out
as §2

[8] = test system: S. aureus RpoB mutant R484S; experiment: MIC, S. aureus RpoB R484S mutant; conditions: Staphylococcus aureus; RpoB mutation R484S; strain background 1
Description: as §1, with “Mutants resistant to rifampin, rifalazil, or NCEs were selected either on drug-containing plates or in liquid culture.” left out
as §2

[9] = test system: S. aureus RpoB mutant Q468R; experiment: MIC, S. aureus RpoB Q468R mutant; conditions: Staphylococcus aureus; RpoB mutation Q468R; strain background 1
Description: as §1, with “Mutants resistant to rifampin, rifalazil, or NCEs were selected either on drug-containing plates or in liquid culture.” left out
as §2

[10] = test system: S. aureus RpoB mutant Q468K; experiment: MIC, S. aureus RpoB Q468K mutant; conditions: Staphylococcus aureus; RpoB mutation Q468K; strain background 1
Description: as §1, with “Mutants resistant to rifampin, rifalazil, or NCEs were selected either on drug-containing plates or in liquid culture.” left out
as §2

[11] = test system: S. aureus RpoB mutant R484C; experiment: MIC, S. aureus RpoB R484C mutant; conditions: Staphylococcus aureus; RpoB mutation R484C; strain background 3
Description: as §1, with “Mutants resistant to rifampin, rifalazil, or NCEs were selected either on drug-containing plates or in liquid culture.” left out
as §2

[12] = test system: S. aureus RpoB mutant I527P; experiment: MIC, S. aureus RpoB I527P mutant; conditions: Staphylococcus aureus; RpoB mutation I527P; strain background 1
Description: as §1, with “Mutants resistant to rifampin, rifalazil, or NCEs were selected either on drug-containing plates or in liquid culture.” left out
as §2

[13] = test system: S. aureus RpoB mutant H481R; experiment: MIC, S. aureus RpoB H481R mutant; conditions: Staphylococcus aureus; RpoB mutation H481R; strain background 3
Description: as §1, with “Mutants resistant to rifampin, rifalazil, or NCEs were selected either on drug-containing plates or in liquid culture.” left out
as §2

[14] = test system: S. aureus RpoB mutant S464P; experiment: MIC, S. aureus RpoB S464P mutant; conditions: Staphylococcus aureus; RpoB mutation S464P; strain backgrounds 1, 2, 4
Description: as §1, with “Mutants resistant to rifampin, rifalazil, or NCEs were selected either on drug-containing plates or in liquid culture.” left out
as §2

[15] = test system: S. aureus RpoB mutant L466S; experiment: MIC, S. aureus RpoB L466S mutant; conditions: Staphylococcus aureus; RpoB mutation L466S; strain backgrounds 1, 2, 4
Description: as §1, with “Mutants resistant to rifampin, rifalazil, or NCEs were selected either on drug-containing plates or in liquid culture.” left out
as §2

[16] = test system: S. aureus RpoB mutant D471V; experiment: MIC, S. aureus RpoB D471V mutant; conditions: Staphylococcus aureus; RpoB mutation D471V; strain background 3
Description: as §1, with “Mutants resistant to rifampin, rifalazil, or NCEs were selected either on drug-containing plates or in liquid culture.” left out
as §2

S. aureus 29213 = experiment: Mutant score test (resistance development on agar); conditions: 10^9 cells of S. aureus 29213 on agar plate with 1 μg/ml compound
Method: A further confirmation of the validity of MIC testing of the mutant panel was provided by our mutant score test. Using this strategy, compounds were individually tested for resistance development by inoculating 10^9 cells of S. aureus 29213, a standard susceptibility strain, onto a large agar plate (150 mm) containing Mueller Hinton Agar as well as 1 μg/ml of the test compound. The presence of rifalazil or rifampin in these plates generally allowed for the growth of ˜50 colonies, all colonies representing a mutant sub-population or populations in the culture. […] The MICs of NCEs on agar plates were lower than MICs determined by growth in liquid broth. […] This correlation provided additional confidence in the value and ranking of compounds by MIC testing of the mutant panel, as compounds having a score of 2 have tracked with strong activity in MIC testing against resistant strains, as indicated in Table 3.

[17] = test system: S. aureus RpoB mutant D471G; experiment: MIC, S. aureus RpoB D471G mutant; conditions: Staphylococcus aureus; RpoB mutation D471G; strain backgrounds 1, 2
Description: as §1, with “Mutants resistant to rifampin, rifalazil, or NCEs were selected either on drug-containing plates or in liquid culture.” left out
as §2

[18] = test system: S. aureus RpoB mutant S486L; experiment: MIC, S. aureus RpoB S486L mutant; conditions: Staphylococcus aureus; RpoB mutation S486L; strain backgrounds 1, 2, 4
Description: as §1, with “Mutants resistant to rifampin, rifalazil, or NCEs were selected either on drug-containing plates or in liquid culture.” left out
as §2

[19] = test system: S. aureus RpoB mutant A477V; experiment: MIC, S. aureus RpoB A477V mutant; conditions: Staphylococcus aureus; RpoB mutation A477V; strain backgrounds 1, 2
Description: as §1, with “Mutants resistant to rifampin, rifalazil, or NCEs were selected either on drug-containing plates or in liquid culture.” left out
as §2

[20] = test system: S. aureus RpoB mutant D471Y; experiment: MIC, S. aureus RpoB D471Y mutant; conditions: Staphylococcus aureus; RpoB mutation D471Y; strain backgrounds 1, 2, 4
Description: as §1, with “Mutants resistant to rifampin, rifalazil, or NCEs were selected either on drug-containing plates or in liquid culture.” left out
as §2

[21] = test system: S. aureus RpoB mutant A477D; experiment: MIC, S. aureus RpoB A477D mutant; conditions: Staphylococcus aureus; RpoB mutation A477D; strain backgrounds 1, 4
Description: as §1, with “Mutants resistant to rifampin, rifalazil, or NCEs were selected either on drug-containing plates or in liquid culture.” left out
as §2

[22] = test system: S. aureus RpoB mutant Q137L; experiment: MIC, S. aureus RpoB Q137L mutant; conditions: Staphylococcus aureus; RpoB mutation Q137L; strain backgrounds 1, 4
Description: as §1, with “Mutants resistant to rifampin, rifalazil, or NCEs were selected either on drug-containing plates or in liquid culture.” left out
as §2

CO[C@H]1/C=C/O[C@@]2(C)Oc3c(C)c(O)c4c(=O)c(c5oc6cc(N7CCN(CC(C)C)CC7)cc(O)c6nc-5c4c3C2=O)NC(=O)/C(C)=C\C=C\[C@H](C)[C@H](O)[C@@H](C)[C@@H](O)[C@@H](C)[C@H](OC(C)=O)[C@@H]1C [Rfz, rifalazil] was tested, and the MIC ([1]; Mutation None: wild-type parent strains) was 0.015 µg/mL (≈ 0.0159 µM), the MIC ([1]; Staphylococcus aureus, strain not stated, matches wild-type value of Table 2, read-out: MIC) was 0.015 µg/mL (≈ 0.0159 µM) and the MIC [2] was greater than 8 µg/mL. The MIC [3] was 8 µg/mL (≈ 8.5 µM), the MIC [4] was 0.063 µg/mL (≈ 0.0669 µM) and the MIC [5] was less than 0.031 µg/mL. It also gave an MIC [6] greater than 8 µg/mL, an MIC [7] of 0.125 µg/mL (≈ 0.133 µM) and an MIC [8] of 0.5 µg/mL (≈ 0.531 µM). It also gave an MIC [9] greater than 8 µg/mL, an MIC [10] greater than 8 µg/mL and an MIC [11] of 0.5 µg/mL (≈ 0.531 µM). The MIC [12] was 1 µg/mL (≈ 1.06 µM), the MIC [13] was greater than 8 µg/mL and the MIC [14] was 1 µg/mL (≈ 1.06 µM). For the same compound, the MIC [15] was 0.016 µg/mL (≈ 0.017 µM), the MIC [16] was 2 µg/mL (≈ 2.13 µM) and the “growth of mutant colonies on plate” value (S. aureus 29213) was roughly 50 colonies. For the same compound, the MIC [17] was greater than 8 µg/mL, the MIC [18] was greater than 8 µg/mL and the MIC [19] was 0.063 µg/mL (≈ 0.0669 µM). For the same compound, the MIC [20] was 0.25 µg/mL (≈ 0.266 µM), the MIC [21] was 2 to 4 µg/mL (≈ 2.13 to 4.25 µM) and the MIC [22] was less than 0.031 µg/mL.
